The text below walks through data of patent US4111751A, “Method of purifying alcohol dehydrogenase” (President and Fellows of Harvard College, priority 1977, dated 1978).

Test [1] has as its target T1, II-ADH (anodic band of liver alcohol dehydrogenase) (Homo sapiens, UniProt P08319).
T1 construct: Starting with 100 g frozen human liver; from tissue; host or cells: human liver (frozen), purified
The class given is biochemical. The conditions noted are these: pH 7.5; read-out: Km for ethanol. From the text:
(§1) However, purification of these enzymes has been a complicated and difficult procedure. […] Elution is preferably carried out with pyrazole solution or with a lower alkanol having at least two carbon atoms, e.g., ethanol, 1-propanol, 1-butanol, 1-pentanol, and the like. Further purification and separation of isoenzymes from the bound portion can be achieved by alcohol gradient elution. The alcohol dehydrogenase of the bound portion can be separated from the NAD after elution, if desired, by conventional dialysis procedures. […] The anodic band of liver alcohol dehydrogenase, as identified by Li et al., Biochem. Biophys. Res. Comm.

Test [2] deals with other forms of liver alcohol dehydrogenase. The conditions noted are these: read-out: Km for ethanol; cited from earlier work.
Test [3] deals with T1, II-ADH (anodic band of liver alcohol dehydrogenase). The experiment in a line: inhibition of purified II-ADH (anodic band, pyrazole-insensitive liver alcohol dehydrogenase) activity. The class given is biochemical.
Source text: as §1

Test [4] deals with all other forms of liver alcohol dehydrogenase. Briefly: inhibition of the other (pyrazole-sensitive) forms of liver alcohol dehydrogenase. It counts as biochemical, human.
Source text: as §1

For test [5], the system named is human liver alcohol dehydrogenase. Briefly: inhibition of alcohol dehydrogenase activity of frozen human liver starting material. It counts as biochemical. The conditions noted are these: 33 micromolar, pH 10, frozen human liver. The method, then:
Starting with 100 g frozen human liver having a specific activity at pH 10 of about 0.05 I.U./mg and low inhibition (~ 75%) by 33 micromolar 4-methyl-pyrazole at pH 10 as well as high intensity of stain for the anodic band on starch gel electrophoresis, the liver was homogenized in 2.5 volumes water at 4° C., centrifuged for 30 min. at 30,000 rpm in a 30 rotor to provide 240 ml. of clear supernatant assaying at 58 I.U. of pyrazole-insensitive activity with a specific activity of 0.002 I.U./mg.

What is called Km is the substrate concentration at which the rate is half of its maximum. What is called inhibition is the percentage by which the read-out fell short of the control. Higher therefore signals a strong effect. In general, Ki refers to a dissociation constant, usually derived from enzyme kinetics or from competition with a known ligand. Read a high Ki as a looser hold on the target.

T1 sequence (P08319 2-380 limits assumed): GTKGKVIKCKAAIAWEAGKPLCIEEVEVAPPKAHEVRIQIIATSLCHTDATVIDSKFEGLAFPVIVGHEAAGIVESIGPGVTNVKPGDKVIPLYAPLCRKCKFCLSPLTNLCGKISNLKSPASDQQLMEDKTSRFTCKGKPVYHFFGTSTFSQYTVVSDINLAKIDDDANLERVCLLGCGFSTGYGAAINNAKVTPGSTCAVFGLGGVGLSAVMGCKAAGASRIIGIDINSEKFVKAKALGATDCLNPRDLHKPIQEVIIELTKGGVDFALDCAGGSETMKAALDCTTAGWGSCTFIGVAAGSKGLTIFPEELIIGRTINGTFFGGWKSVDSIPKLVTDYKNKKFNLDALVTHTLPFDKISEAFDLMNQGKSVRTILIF

As for `CCO` [ethanol], the results for the Michaelis-Menten constant (Km) in test [1] and in test [2] were 15 to 30 mM and at most 1 mM, respectively.

`Cc1cn[nH]c1` [4-methylpyrazole] had an inhibition at 200 µM in test [3] (0.2 mM 4-methylpyrazole, 100 mM ethanol, purified II-ADH) below 10%. In addition, the “inhibition” value was “virtually uninhibited” in test [3] (33 micromolar, product after agarose-AMP) and ~ 75% in test [5]. Also, the Vi/Vc in test [3] (eluant (effluent) of pyrazole affinity resin containing the anodic band) is recorded as 95-100%. For the same molecule, the inhibition of activity result in test [4] (0.2 mM 4-methylpyrazole, 100 mM ethanol, remainder of purified enzyme forms) is recorded as “more than 90%”.

Molecule `c1cn[nH]c1` [pyrazole] returned a Ki in test [4] (all other forms of liver alcohol dehydrogenase) below 1 µM.
